Experiment [1] relates to MV-4-11 acute myeloid leukemia xenograft. The experiment in a line: MV-4-11 xenograft efficacy model. The class given is in vivo, mice. Particulars: 25 mg/kg/day orally for 14 days in combination with Leunase 1000 U/kg. Here is the method: The MV-4-11 acute myeloid leukemia xenograft model was performed in compliance with all the laws, regulations, and guidelines of the National Institutes of Health (NIH) and with the approval of the Animal Care and Use Committee of Crown Bioscience (Taicang, China), an AAALAC accredited facility. Food and water were provided ad libitum. […] Female NOD/SCID (6-9 weeks old; Vital River Laboratories Research Models and Services (Beijing, China)) were inoculated subcutaneously right front flank region with five million cells in Dulbecco's Phosphate Buffered Saline:Matrigel (1:1), using a 27-gauge needle and syringe. When tumor burdens reached 150 mm^3 on average on day 7, mice were randomly assigned into groups such that the mean tumor burden for all groups was within 10% of the overall mean tumor burden for the study population. Groups were treated on days 7-21 as follows: vehicle control (dosed orally and IP to mimic combination group (n=10); Compound 16 dosed orally at 25 mg/kg/day (n=10); Leunase (Kyowa Kirin, Japan) dosed IP at 1000 U/kg/day (n=10); Leunase (Kyowa Kirin, Japan) dosed IP at 1000 U/kg/day (n=10) and Compound 16 dosed orally at 25 mg/kg/day (n=10). Tumor volume and body weight were measured three times per week. Tumor burden (mg) was estimated from caliper measurements by the formula: tumor burden (mg=mm^3)=(length×width^2)/2.

The target of experiment [2] is PERK kinase (Homo sapiens (Human), UniProt Q9NZJ5). The experiment in a line: Biochemical assay for PERK (coupled pyruvate kinase/lactate dehydrogenase assay). As to conditions: 1 mM ATP, rate from 2-3 h time frame. In short, it runs like this: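 Coupled pyruvate kinase/lactate dehydrogenase readout of ATP hydrolysis via NADH oxidation (A340), 10 nM PERK, 0.25 mg/mL myelin basic protein, 1 mM ATP, pH 7.5 Tris/MgCl2 buffer, 1% DMSO. Absorbance followed 6 h at 30° C; rate from the 2-3 h window, normalised to no-compound and known-inhibitor controls, IC50 fitted.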

Experiment [3] concerns H929, RPMI8226, GA-10 and DoHH-2 cells. Description: Inhibition of multiple myeloma and B-cell lymphoma cell proliferation. The class given is cell-based. As to conditions: combination with SOC agents for multiple myeloma or B cell lymphomas. As to the method: H929, RPMI8226, GA-10, and DoHH-2 cells (catalog #CRL-9068) were obtained from the American Type Culture Collection (ATTC, Manassas, VA). H929 Cells were maintained in RPMI-1640 medium supplemented with 20% heat-inactivated fetal bovine serum (catalog #A3840002, ThermoFisher Scientific, Waltham, MA), 1% Penicillin/Streptomycin/L-Glutamine (catalog #10378016, ThermoFisher Scientific, Waltham, MA), and 0.05 mM 2-mercaptoethanol (catalog #21985-023, ThermoFisher Scientific, Waltham, MA). […]
For cell proliferation assay appropriate number of cells (Forty thousand cells for H929; Twenty thousand cells for RPMI8226, and GA-10; Eight thousand cells for DoHH-2) were seeded per well in 200 μL in respective medium were dispensed into a 96-well black clear bottom plate. […] Plates were read on a Synergy2 or equivalent reader (Biotek, Winooski VT) using an excitation of 540 nm and an emission of 600 nm. At the end of the incubation of DoHH-2, cell viability was determined using CellTiter-Glo® assay (Promega, Madison, WI). Luminescence was measured using EnVision MultiLabel Reader (PerkinElmer, Waltham, MA). Data was analyzed using GraphPad Prism software (GraphPad, San Diego, CA) to calculate IC50 values.

Experiment [4] deals with ATF4 in CCRF-CEM leukemia cells (PERK). Description: CCRF-CEM TG ATF4 ELISA, phenotypic assay for cellular inhibition of PERK preactivated by thapsigargin. The class given is cell-based. Particulars: Homo sapiens; Thapsigargin (1 μM) stimulated CCRF-CEM cells. Background: ELISA stands for enzyme-linked immunosorbent assay.

In general, IC50 refers to the concentration needed to halve the response being measured.

Sequence of PERK kinase (Q9NZJ5 other isoform, or with tags, fused parts or gaps): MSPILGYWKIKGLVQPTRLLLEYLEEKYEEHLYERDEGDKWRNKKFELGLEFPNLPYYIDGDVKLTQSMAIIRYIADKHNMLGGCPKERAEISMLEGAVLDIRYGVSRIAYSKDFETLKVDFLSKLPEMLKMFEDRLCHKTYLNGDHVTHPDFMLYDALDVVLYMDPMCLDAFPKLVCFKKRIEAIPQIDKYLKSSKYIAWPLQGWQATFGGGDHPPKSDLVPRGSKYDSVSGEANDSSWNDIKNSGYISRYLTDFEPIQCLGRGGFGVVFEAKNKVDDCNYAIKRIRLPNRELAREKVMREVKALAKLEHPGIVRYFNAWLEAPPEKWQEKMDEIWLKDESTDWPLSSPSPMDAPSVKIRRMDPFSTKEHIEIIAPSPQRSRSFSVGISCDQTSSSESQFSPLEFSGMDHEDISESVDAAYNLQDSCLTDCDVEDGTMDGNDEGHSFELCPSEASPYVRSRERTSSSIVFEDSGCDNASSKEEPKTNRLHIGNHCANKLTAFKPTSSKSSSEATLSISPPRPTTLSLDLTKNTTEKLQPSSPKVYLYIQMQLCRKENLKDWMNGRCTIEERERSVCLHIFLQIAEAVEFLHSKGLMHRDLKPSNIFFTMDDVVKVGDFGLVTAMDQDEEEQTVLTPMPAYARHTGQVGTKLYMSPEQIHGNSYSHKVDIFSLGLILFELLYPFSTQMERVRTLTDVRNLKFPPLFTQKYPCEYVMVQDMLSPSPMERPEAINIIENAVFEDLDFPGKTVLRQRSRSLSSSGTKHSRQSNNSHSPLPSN

On to `CNc1ncc2cc(-c3cccc(NS(=O)(=O)c4cc(Cl)cnc4OC)c3F)c(NC)nc2n1` [Compound 16], for which the “effect on MV-4-11 tumor growth” value in experiment [1] is “tumor regression”. Further, the half-inhibitory concentration (IC50) in experiment [2] was in the range of 100 to 500 nM; in experiment [4], 1 to 10 µM. In addition, the “inhibition of cell proliferation in combination with standard of care agents” value in experiment [3] was “additivity or synergy”.

For the origin of these results see US11912668B2, “GCN2 and perk kinase inhibitors and methods of use thereof” (Deciphera Pharmaceuticals, LLC, priority 2020, dated 2024).
